Counter-ions that a name gives are not always drawn.
Test system: aminopeptidases
Assay: In situ nasal perfusion: degradation of 100 µM leucine enkephalin in the nasal perfusate
Type: in vivo, Sprague-Dawley rats
Conditions: for % Leucine Enkephalin Remaining: 0.1 µM inhibitor
Protocol: In order to evaluate the effectiveness of the α-aminoboronic acid derivative inhibitors of this invention, an animal model was used (according to A. Hussain, J. Furaj, A. Yukihiko and J. E. Truelove, Biochem. Biophys. Res. Com. 133, 923, 1985) to assess the degradation of proteins and peptides in situ and in vivo in situ in the nasal cavity of rats. The method involved the use of Sprague-Dawley rats weighing approximately 300 grams. Each rat was anesthetized with sodium pentobarbitol (50 mg/kg). An incision was made in the neck and the trachea was canulated with PE 240 tubing. For the in situ studies, a second tube, which served to introduce the perfusing solution, was inserted through the esophagus to the posterior part of the nasal cavity. The nasopalatine was closed with an adhesive to prevent drainage of the perfusing solution from the nasal to the oral cavity. For the in vivo in situ studies, the esophagus was canulated using PE 240 tubing closed at one end. The closed end was pushed to the posterior end of the nasal passage and then tied in place. The nasopalatine was closed with an adhesive to prevent drainage of the perfusing solution from the nasal to the oral cavity. The rats were dosed in one nostril with 50 µl of peptide solution in two forms; the control solution had no inhibitor added, the test solution had inhibitor added at concentrations specified in the examples shown below. The dosing solution was 0.1 M phosphate buffer (pH 7.4). At certain time intervals (one rat/time interval), the drug was washed from the nose via the other nostril with 10 ml of 0.1 M phosphate buffer (pH 3.8) using a peristaltic pump. The nasal washing was then placed in a 10 ml volumetric flask and adjusted to 10 ml with the same buffer and analyzed for the peptide by HPLC. The analysis of leucine enkephalin and its major metabolite involved taking aliquots of samples, diluting them with 200 µl of 0.1 M citric acid (pH 2.3) to quench hydrolysis and subjecting the samples to analysis (for in vivo in situ studies, the washings were injected as they were obtained). High Pressure Liquid Chromatography (HPLC) was run on a 4.6 x 250 mm C₈ column. The mobile phase consisted of 0.1 M NaH₂PO₄-H₃PO₄-acetonitrile (916 : 5 : 275) and was delivered at a flow rate of 1.7 ml/min. Detection was by UV at 210 nm. Retention times for leucine enkephalin and its major degradation product, Des-Tyr-leucine enkephalin were 7.3 and 4.8 min., respectively. Data were calculated as % of leucine enkephalin remaining in the nasal perfusate as a function of time, counting the concentration at zero time as 100%. In this example, a 10 ml solution of 0.1 M phosphate buffer solution (pH 7.4) containing 100 µM leucine enkephalin (the peptide) in the absence or presence of 0.1 µM 3-methyl-1(4,4,5,5-tetramethyl-1,3,2-dioxaborolane-2-yl)-1-butamine, trifluoroacetic acid salt (boroleucine) as the inhibitor was perfused nasally in rats as described above. A 10 ml portion of the peptide solution was placed in a water-jacketed container, maintained at 37°C and circulated through the nasal cavity of rats using a peristaltic pump. The perfusing solution was passed through the nasal cavity, out the nostrils, through a funnel, and returned to the water-jacketed container. The perfusate was analyzed by the ANALYTICAL METHOD described above.

For `CC(C)CC(N)B1OC(C)(C)C(C)(C)O1` (centres unmarked) [boroleucine, 3-methyl-1(4,4,5,5-tetramethyl-1,3,2-dioxaborolane-2-yl)-1-butamine, trifluoroacetic acid salt], the “% of leucine enkephalin remaining in the nasal perfusate” value (shortened to “% of leucine enkephalin remaining”) (0.01 µM Boroleucine (title: 0.1 µM), 0 min) was 100.0±0.0%, the “% of leucine enkephalin remaining” value (0.01 µM Boroleucine (title: 0.1 µM), 5 min) was 96.6±1.5% and the “% of leucine enkephalin remaining” value (0.01 µM Boroleucine (title: 0.1 µM), 10 min) was 93.5±3.0%. The “% of leucine enkephalin remaining” value (0.01 µM Boroleucine (title: 0.1 µM), 20 min) was 96.4±1.7%, the “% of leucine enkephalin remaining” value (0.01 µM Boroleucine (title: 0.1 µM), 30 min) was 92.7±3.3% and the “% of leucine enkephalin remaining” value (0.01 µM Boroleucine (title: 0.1 µM), 45 min) was 91.8±2.5%. The “% of leucine enkephalin remaining” value (0.01 µM Boroleucine (title: 0.1 µM), 90 min) was 85.7±3.5%, the “% of leucine enkephalin remaining” value (0.01 µM inhibitor, 0 min) was 100.0±0.0% and the “% of leucine enkephalin remaining” value (0.01 µM inhibitor, 10 min) was 90.6±3.5%. The “% of leucine enkephalin remaining” value (0.01 µM inhibitor, 20 min) was 89.1±5.3%, the “% of leucine enkephalin remaining” value (0.01 µM inhibitor, 30 min) was 79.1±2.9% and the “% of leucine enkephalin remaining” value (0.01 µM inhibitor, 45 min) was 74.9±2.8%. The “% of leucine enkephalin remaining” value (0.01 µM inhibitor, 60 min) was 69.2±2.0%, the “% of leucine enkephalin remaining” value (0.01 µM inhibitor, 90 min) was 56.2±1.6% and the “% of leucine enkephalin remaining” value (0.03 µM inhibitor, 0 min) was 100.0±0.0%. The “% of leucine enkephalin remaining” value (0.03 µM inhibitor, 5 min) was 94.1±1.7%, the “% of leucine enkephalin remaining” value (0.03 µM inhibitor, 10 min) was 93.6±1.6% and the “% of leucine enkephalin remaining” value (0.03 µM inhibitor, 20 min) was 91.8±2.2%. For the same molecule, the “% of leucine enkephalin remaining” value (0.03 µM inhibitor, 30 min) was 88.3±1.4%, the “% of leucine enkephalin remaining” value (0.03 µM inhibitor, 45 min) was 85.7±1.3% and the “% of leucine enkephalin remaining” value (0.03 µM inhibitor, 60 min) was 81.5±1.4%. For the same molecule, the “% of leucine enkephalin remaining” value (0.03 µM inhibitor, 90 min) was 72.9±1.0%, the “order of inhibition of degradation” value (0.1 µM boroleucine, 10 µM bestatin, 100 µM puromycin) was “boroleucine> bestatin> puromycin” and the “% Leucine Enkephalin Remaining” value (0 min) was 100.0±0.0%. The “% Leucine Enkephalin Remaining” value (5 min) was 96.6±1.5%, the “% Leucine Enkephalin Remaining” value (10 min) was 93.5±3.0% and the “% Leucine Enkephalin Remaining” value (20 min) was 96.4±1.7%. The “% Leucine Enkephalin Remaining” value (30 min) was 92.7±3.3%, the “% Leucine Enkephalin Remaining” value (45 min) was 91.8±2.5% and the “% Leucine Enkephalin Remaining” value (60 min) was 88.8±2.6%. For the same molecule, the “% Leucine Enkephalin Remaining” value (90 min) was 85.6±3.5% and the “comparison of the inhibitory effect of equimolar concentrations” value (0.1 µM of each inhibitor) was “superior to boroalanine”.

— patent EP0341661A2, “Peptide-drug compositions containing alpha-aminoboronic acid derivatives” (THE DU PONT MERCK PHARMACEUTICAL COMPANY, priority 1988, dated 1989)
